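A five-concentration, 48-hour dose response in 96-well plates underlies each endpoint, interpolated linearly between surrounding concentrations. GI50 = concentration required for 50% inhibition of growth. TGI denotes the concentration required for complete inhibition of growth.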
What was measured:
Assay in all cases: NCI tumour cell line growth inhibition, 48 h; in the data active means GI50 below about 0.43 µM; inactive means the rest
HCC-2998 colon = test system: HCC-2998 colon
786-0 renal = test system: 786-0 renal
HCT-116 colon = test system: HCT-116 colon
A549 NSCLC = test system: A549 NSCLC
MDA-MB-231 breast = test system: MDA-MB-231 breast
ACHN renal = test system: ACHN renal
SK-MEL-5 melanoma = test system: SK-MEL-5 melanoma
DU-145 prostate = test system: DU-145 prostate
RPMI-8226 leukemia = test system: RPMI-8226 leukemia
HOP-92 NSCLC = test system: HOP-92 NSCLC
COLO 205 colon = test system: COLO 205 colon
NCI-H460 lung = test system: NCI-H460 lung
NCI/ADR-RES ovarian = test system: NCI/ADR-RES ovarian
KM12 colon = test system: KM12 colon
SK-MEL-2 melanoma = test system: SK-MEL-2 melanoma
HS 578T breast = test system: HS 578T breast
NCI-H23 lung = test system: NCI-H23 lung
MOLT-4 leukemia = test system: MOLT-4 leukemia
RXF 393 renal = test system: RXF 393 renal
OVCAR-4 ovarian = test system: OVCAR-4 ovarian
SF-268 CNS = test system: SF-268 CNS
K-562 leukemia = test system: K-562 leukemia
IGROV1 ovarian = test system: IGROV1 ovarian
SF-295 CNS = test system: SF-295 CNS
U251 CNS = test system: U251 CNS
OVCAR-5 ovarian = test system: OVCAR-5 ovarian
MDA-MB-435 = test system: MDA-MB-435
PC-3 prostate = test system: PC-3 prostate
TK-10 renal = test system: TK-10 renal
UO-31 renal = test system: UO-31 renal
NCI-H226 lung = test system: NCI-H226 lung
UACC-62 melanoma = test system: UACC-62 melanoma
SN12C renal = test system: SN12C renal
MALME-3M melanoma = test system: MALME-3M melanoma
BT-549 breast = test system: BT-549 breast
LOX IMVI melanoma = test system: LOX IMVI melanoma
SK-MEL-28 melanoma = test system: SK-MEL-28 melanoma
SNB-19 CNS = test system: SNB-19 CNS
OVCAR-3 ovarian = test system: OVCAR-3 ovarian
NCI-H522 lung = test system: NCI-H522 lung
SW-620 colon = test system: SW-620 colon
HOP-62 NSCLC = test system: HOP-62 NSCLC
A498 renal = test system: A498 renal
HL-60(TB) leukemia = test system: HL-60(TB) leukemia
HCT-15 colon = test system: HCT-15 colon
SK-OV-3 ovarian = test system: SK-OV-3 ovarian
SNB-75 CNS = test system: SNB-75 CNS
SR leukemia = test system: SR leukemia
OVCAR-8 ovarian = test system: OVCAR-8 ovarian
T-47D breast = test system: T-47D breast
UACC-257 melanoma = test system: UACC-257 melanoma
HT29 colon = test system: HT29 colon
CCRF-CEM leukemia = test system: CCRF-CEM leukemia
CAKI-1 renal = test system: CAKI-1 renal
M14 melanoma = test system: M14 melanoma
SF-539 CNS = test system: SF-539 CNS
MCF7 breast = test system: MCF7 breast

Cn1cc(C2=C(c3cn(C)c4ccc(OCc5ccccc5)cc34)C(=O)NC2=O)c2ccccc21
inactive: GI50 (HCC-2998 colon) > 25 µM | GI50 (786-0 renal) > 25 µM | GI50 (HCT-116 colon) > 25 µM | GI50 (A549 NSCLC) > 25 µM | GI50 (MDA-MB-231 breast) > 25 µM | GI50 (ACHN renal) > 25 µM | GI50 (SK-MEL-5 melanoma) > 25 µM | GI50 (DU-145 prostate) > 25 µM | GI50 (RPMI-8226 leukemia) > 25 µM | GI50 (HOP-92 NSCLC) > 25 µM | GI50 (COLO 205 colon) > 25 µM | GI50 (NCI-H460 lung) > 25 µM | GI50 (NCI/ADR-RES ovarian) > 25 µM | GI50 (KM12 colon) > 25 µM | GI50 (SK-MEL-2 melanoma) > 25 µM | GI50 (HS 578T breast) > 21.2 µM | GI50 (NCI-H23 lung) > 25 µM | GI50 (MOLT-4 leukemia) > 25 µM | GI50 (RXF 393 renal) > 25 µM | GI50 (OVCAR-4 ovarian) > 16.9 µM | GI50 (SF-268 CNS) > 25 µM | GI50 (K-562 leukemia) > 25 µM | GI50 (IGROV1 ovarian) > 25 µM | GI50 (SF-295 CNS) > 25 µM | GI50 (U251 CNS) > 25 µM | GI50 (OVCAR-5 ovarian) > 25 µM | GI50 (MDA-MB-435) > 25 µM | GI50 (PC-3 prostate) > 25 µM | GI50 (TK-10 renal) > 25 µM | GI50 (UO-31 renal) > 25 µM | GI50 (NCI-H226 lung) > 25 µM | GI50 (UACC-62 melanoma) > 25 µM | GI50 (SN12C renal) > 25 µM | GI50 (MALME-3M melanoma) > 25 µM | GI50 (BT-549 breast) > 25 µM | GI50 (LOX IMVI melanoma) > 25 µM | GI50 (SK-MEL-28 melanoma) > 25 µM | GI50 (SNB-19 CNS) > 25 µM | GI50 (OVCAR-3 ovarian) > 25 µM | GI50 (NCI-H522 lung) > 25 µM | GI50 (SW-620 colon) > 25 µM | GI50 (HOP-62 NSCLC) > 25 µM | GI50 (A498 renal) > 25 µM | GI50 (HL-60(TB) leukemia) > 25 µM | GI50 (HCT-15 colon) > 25 µM | GI50 (SK-OV-3 ovarian) > 25 µM | GI50 (SNB-75 CNS) > 25 µM | GI50 (SR leukemia) > 25 µM | GI50 (OVCAR-8 ovarian) > 25 µM | GI50 (T-47D breast) > 25 µM | GI50 (UACC-257 melanoma) > 25 µM | GI50 (HT29 colon) > 25 µM | GI50 (CCRF-CEM leukemia) > 25 µM | GI50 (CAKI-1 renal) > 25 µM | GI50 (M14 melanoma) > 25 µM | GI50 (SF-539 CNS) > 25 µM | GI50 (MCF7 breast) > 25 µM
> 25 µM: TGI (HCC-2998 colon) | TGI (786-0 renal) | TGI (HCT-116 colon) | TGI (A549 NSCLC) | TGI (MDA-MB-231 breast) | TGI (ACHN renal) | TGI (SK-MEL-5 melanoma) | TGI (DU-145 prostate) | TGI (RPMI-8226 leukemia) | TGI (HOP-92 NSCLC) | TGI (COLO 205 colon) | TGI (NCI-H460 lung) | TGI (NCI/ADR-RES ovarian) | TGI (KM12 colon) | TGI (SK-MEL-2 melanoma) | TGI (HS 578T breast) | TGI (NCI-H23 lung) | TGI (MOLT-4 leukemia) | TGI (RXF 393 renal) | TGI (OVCAR-4 ovarian) | TGI (SF-268 CNS) | TGI (K-562 leukemia) | TGI (IGROV1 ovarian) | TGI (SF-295 CNS) | TGI (U251 CNS) | TGI (OVCAR-5 ovarian) | TGI (MDA-MB-435) | TGI (PC-3 prostate) | TGI (TK-10 renal) | TGI (UO-31 renal) | TGI (NCI-H226 lung) | TGI (UACC-62 melanoma) | TGI (SN12C renal) | TGI (MALME-3M melanoma) | TGI (BT-549 breast) | TGI (LOX IMVI melanoma) | TGI (SK-MEL-28 melanoma) | TGI (SNB-19 CNS) | TGI (OVCAR-3 ovarian) | TGI (NCI-H522 lung) | TGI (SW-620 colon) | TGI (HOP-62 NSCLC) | TGI (A498 renal) | TGI (HL-60(TB) leukemia) | TGI (HCT-15 colon) | TGI (SK-OV-3 ovarian) | TGI (SNB-75 CNS) | TGI (SR leukemia) | TGI (OVCAR-8 ovarian) | TGI (T-47D breast) | TGI (UACC-257 melanoma) | TGI (HT29 colon) | TGI (CCRF-CEM leukemia) | TGI (CAKI-1 renal) | TGI (M14 melanoma) | TGI (SF-539 CNS) | TGI (MCF7 breast)

CCOC(=O)Nc1nc2cc(OC)c(OC)c(OC)c2s1
> 100 µM: TGI (HCC-2998 colon) | TGI (786-0 renal) | TGI (HCT-116 colon) | TGI (A549 NSCLC) | TGI (MDA-MB-231 breast) | TGI (ACHN renal) | TGI (SK-MEL-5 melanoma) | TGI (DU-145 prostate) | TGI (RPMI-8226 leukemia) | TGI (COLO 205 colon) | TGI (NCI-H460 lung) | TGI (NCI/ADR-RES ovarian) | TGI (KM12 colon) | TGI (SK-MEL-2 melanoma) | TGI (HS 578T breast) | TGI (NCI-H23 lung) | TGI (MOLT-4 leukemia) | TGI (RXF 393 renal) | TGI (OVCAR-4 ovarian) | TGI (SF-268 CNS) | TGI (K-562 leukemia) | TGI (IGROV1 ovarian) | TGI (SF-295 CNS) | TGI (U251 CNS) | TGI (OVCAR-5 ovarian) | TGI (MDA-MB-435) | TGI (PC-3 prostate) | TGI (TK-10 renal) | TGI (UO-31 renal) | TGI (NCI-H226 lung) | TGI (UACC-62 melanoma) | TGI (SN12C renal) | TGI (MALME-3M melanoma) | TGI (BT-549 breast) | TGI (LOX IMVI melanoma) | TGI (SK-MEL-28 melanoma) | TGI (SNB-19 CNS) | TGI (OVCAR-3 ovarian) | TGI (NCI-H522 lung) | TGI (SW-620 colon) | TGI (A498 renal) | TGI (HL-60(TB) leukemia) | TGI (HCT-15 colon) | TGI (SK-OV-3 ovarian) | TGI (SR leukemia) | TGI (OVCAR-8 ovarian) | TGI (T-47D breast) | TGI (UACC-257 melanoma) | TGI (HT29 colon) | TGI (CCRF-CEM leukemia) | TGI (CAKI-1 renal) | TGI (M14 melanoma) | TGI (SF-539 CNS) | TGI (MCF7 breast)
64.6 µM: TGI (SNB-75 CNS)
74.9 µM: TGI (HOP-92 NSCLC)
95.6 µM: TGI (HOP-62 NSCLC)
inactive: GI50 (HCC-2998 colon) > 100 µM | GI50 (786-0 renal) 61.2 µM | GI50 (HCT-116 colon) > 100 µM | GI50 (A549 NSCLC) > 100 µM | GI50 (MDA-MB-231 breast) 31.5 µM | GI50 (ACHN renal) 46.9 µM | GI50 (SK-MEL-5 melanoma) > 100 µM | GI50 (DU-145 prostate) > 100 µM | GI50 (RPMI-8226 leukemia) > 100 µM | GI50 (HOP-92 NSCLC) 15.8 µM | GI50 (COLO 205 colon) > 100 µM | GI50 (NCI-H460 lung) > 100 µM | GI50 (NCI/ADR-RES ovarian) > 100 µM | GI50 (KM12 colon) > 100 µM | GI50 (SK-MEL-2 melanoma) 62.6 µM | GI50 (HS 578T breast) 17.5 µM | GI50 (NCI-H23 lung) 28.5 µM | GI50 (MOLT-4 leukemia) > 100 µM | GI50 (RXF 393 renal) 49.4 µM | GI50 (OVCAR-4 ovarian) > 100 µM | GI50 (SF-268 CNS) 50.4 µM | GI50 (K-562 leukemia) > 100 µM | GI50 (IGROV1 ovarian) 91 µM | GI50 (SF-295 CNS) 41.4 µM | GI50 (U251 CNS) 38.7 µM | GI50 (OVCAR-5 ovarian) > 100 µM | GI50 (MDA-MB-435) > 100 µM | GI50 (PC-3 prostate) > 100 µM | GI50 (TK-10 renal) 42.4 µM | GI50 (UO-31 renal) 13.9 µM | GI50 (NCI-H226 lung) 73.7 µM | GI50 (UACC-62 melanoma) > 100 µM | GI50 (SN12C renal) > 100 µM | GI50 (MALME-3M melanoma) > 100 µM | GI50 (BT-549 breast) > 100 µM | GI50 (LOX IMVI melanoma) > 100 µM | GI50 (SK-MEL-28 melanoma) > 100 µM | GI50 (SNB-19 CNS) > 100 µM | GI50 (OVCAR-3 ovarian) 51.5 µM | GI50 (NCI-H522 lung) > 100 µM | GI50 (SW-620 colon) > 100 µM | GI50 (HOP-62 NSCLC) 24.9 µM | GI50 (A498 renal) 26.2 µM | GI50 (HL-60(TB) leukemia) > 100 µM | GI50 (HCT-15 colon) > 100 µM | GI50 (SK-OV-3 ovarian) 66.5 µM | GI50 (SNB-75 CNS) 16.9 µM | GI50 (SR leukemia) > 100 µM | GI50 (OVCAR-8 ovarian) > 100 µM | GI50 (T-47D breast) > 100 µM | GI50 (UACC-257 melanoma) > 100 µM | GI50 (HT29 colon) > 100 µM | GI50 (CCRF-CEM leukemia) > 100 µM | GI50 (CAKI-1 renal) > 100 µM | GI50 (M14 melanoma) > 100 µM | GI50 (SF-539 CNS) > 100 µM | GI50 (MCF7 breast) > 100 µM

— PubChem BioAssay (NCI)
